Among the data in patent US20220380378A1 (ESSA Pharma, Inc., priority 2021, published 2022) are IC50 and half-life values, retold here.

Data set [1] has as its target T1, androgen receptor (AR) (Homo sapiens, UniProt P10275, T878A).
T1 sequence (P10275 1-920 T878A): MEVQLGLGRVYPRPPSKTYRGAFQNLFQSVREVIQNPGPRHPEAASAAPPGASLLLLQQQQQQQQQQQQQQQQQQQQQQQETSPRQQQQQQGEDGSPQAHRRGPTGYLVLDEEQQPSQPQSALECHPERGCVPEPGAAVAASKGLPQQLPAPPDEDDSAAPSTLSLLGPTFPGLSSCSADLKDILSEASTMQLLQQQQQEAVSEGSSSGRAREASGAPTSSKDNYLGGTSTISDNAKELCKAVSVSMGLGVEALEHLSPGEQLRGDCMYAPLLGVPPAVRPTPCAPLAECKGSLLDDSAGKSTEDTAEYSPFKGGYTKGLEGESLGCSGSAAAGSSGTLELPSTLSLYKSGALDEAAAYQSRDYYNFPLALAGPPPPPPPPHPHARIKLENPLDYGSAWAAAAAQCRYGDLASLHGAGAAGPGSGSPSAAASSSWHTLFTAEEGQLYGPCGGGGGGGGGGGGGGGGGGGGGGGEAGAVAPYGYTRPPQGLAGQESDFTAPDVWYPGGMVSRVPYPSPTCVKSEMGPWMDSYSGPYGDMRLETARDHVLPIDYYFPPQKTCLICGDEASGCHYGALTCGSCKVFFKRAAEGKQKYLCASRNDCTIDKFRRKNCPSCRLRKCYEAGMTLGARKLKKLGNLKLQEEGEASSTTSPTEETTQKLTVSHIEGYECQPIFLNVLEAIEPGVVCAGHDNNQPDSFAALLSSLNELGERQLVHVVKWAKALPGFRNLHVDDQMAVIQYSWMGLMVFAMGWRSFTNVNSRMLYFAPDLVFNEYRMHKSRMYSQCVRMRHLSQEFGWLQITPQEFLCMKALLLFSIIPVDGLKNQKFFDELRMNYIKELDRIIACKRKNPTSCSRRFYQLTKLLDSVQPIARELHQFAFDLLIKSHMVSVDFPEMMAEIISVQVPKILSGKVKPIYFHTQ
Nature of the data set: Androgen-induced PSA (6.1 kb)-luciferase reporter assay in LNCaP cells (R1881 1 nM). Conditions: 24 h, read-out: PSA-Luc IC50 Range. More on the design: LNCaP cells were transiently transfected with the PSA (6.1 kb)-luciferase reporter for 24 h; endogenous in cells; host or cells: LNCaP. The data set is classed as cell-based. As to the method:
The PSA (6.1 kb)-luciferase reporter contains functional AREs (androgen response elements) to which AR binds in response to androgen to induce luciferase activity. LNCaP cells were transiently transfected with the PSA (6.1 kb)-luciferase reporter for 24 h, and then pretreated with vehicle (DMSO) or indicated concentration of representative compounds for one hour prior to the addition of synthetic androgen, R1881 (1 nM). After 24 h of incubation with R1881, the cells were harvested, and relative luciferase activities were determined (FIG. 1). To determine the IC50, treatments were normalized to vehicle control activity induced by R1881 (Table 2).
Luciferase Assay: Cells were lysed using Passive Lysis Buffer (Promega) and then collected into V-bottom 96-well tissue culture plates. Lysates were centrifuged at 4° C. for 5 minutes at 3000 rpm. To measure luminescence of LNCaP cell lysates the Firefly Luciferase Assay System (Promega) was employed, according to manufacturer's protocol. Relative luminescence units (RLU) in cell lysates were detected for 10 seconds using Promega GloMax-Multi Detection Luminometer (Promega). Values were normalized to protein content. GraphPad Prism graphing software was used to calculate IC50 values.
Statistical analyses were performed using GraphPad Prism (Version 6.01 for Windows; La Jolla, Calif., USA). […]
In general terms: A reporter such as luciferase makes a cellular process visible.

Data set [2] in a line: Microsomal stability assay, liver microsome half-life (mouse). The following applies: pH 7.4; mouse liver microsomes 0.5 mg/mL, 1 μM compound, 37° C.; read-out: Liver microsome T1/2 Mouse. The data set is classed as in vitro ADME. The method, boiled down: (§1)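 Test compound at 1 μM incubated at 37 °C with 0.5 mg/mL liver microsomal protein plus 1 mM NADPH and/or 1 mM UDPGA (with alamethicin) in 100 mM potassium phosphate pH 7.4, 3 mM MgCl2. Sampled at 0, 15, 30, 60 min, acetonitrile quench, LC/MS/MS; t½ from parent depletion relative to 0 min.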

Data set [3] in a line: Microsomal stability assay, liver microsome half-life (monkey). The data set is classed as in vitro ADME. Conditions: pH 7.4; monkey liver microsomes 0.5 mg/mL, 1 μM compound, 37° C.; read-out: Liver microsome T1/2 Monkey. On the technique in general: Microsomes from liver hold many membrane-bound enzymes, among them those of drug oxidation.
The target of data set [4] is T1, androgen receptor (AR). Nature of the data set: Androgen-induced PSA (6.1 kb)-luciferase reporter assay in LNCaP cells (R1881 1 nM). Details: endogenous in cells; host or cells: LNCaP. The class given is cell-based. Conditions: 24 h, read-out: PSA-Luc IC50 Range. The method, boiled down:
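LNCaP cells transiently transfected with PSA (6.1 kb)-luciferase for 24 h, pretreated 1 h with compound or DMSO, then stimulated with 1 nM R1881 for 24 h. Firefly luciferase in lysates normalized to protein content; IC50 relative to R1881-induced vehicle activity.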

Data set [5] can be described thus: Microsomal stability assay, liver microsome half-life (human). The class given is in vitro ADME. The following applies: pH 7.4; human liver microsomes 0.5 mg/mL, 1 μM compound, 37° C.; read-out: Liver microsome T1/2 Human. The method, boiled down:
as §1

A short description of data set [6]: Microsomal stability assay, liver microsome half-life (rat). The data set is classed as in vitro ADME. The following applies: pH 7.4; rat liver microsomes 0.5 mg/mL, 1 μM compound, 37° C.; read-out: Liver microsome T1/2 Rat. The essentials: as §1
A short description of data set [7]: Microsomal stability assay, liver microsome half-life (dog). The class given is in vitro ADME. The following applies: pH 7.4; dog liver microsomes 0.5 mg/mL, 1 μM compound, 37° C.; read-out: Liver microsome T1/2 Dog.

Like-named read-outs stand apart in the source and are kept apart here.

As for `CS(=O)(=O)Nc1nccc(COc2ccc3c(ncn3-c3cc(Cl)c(OCCCl)c(C#N)c3)c2Cl)n1` [Compound A46], the half-maximal inhibitory concentration (IC50) on androgen receptor (AR) [1] was less than 500 nM.
Take `CC(C)(c1ccc(OCc2ccnc(NS(C)(=O)=O)n2)cc1)c1cc(F)c(N2CCOCC2)c(C#N)c1` [Compound A262]: the half-life at 1 μM in data set [2] was more than 2 h; in data set [3], 0.85 h; in data set [5], more than 2 h; in data set [6], 1.63 h; in data set [7], more than 2 h. Moreover, the IC50 at androgen receptor (AR) [4] was 500 to 2000 nM.
On to `C[C@@H](Oc1ccc(C(C)(C)c2cc(Cl)c(OCCCl)c(C#N)c2)cc1)C12CC(NS(C)(=O)=O)(C1)C2` [Compound A264], for which the half-life at 1 μM was more than 2 h in data set [2]; 0.8 h in data set [3]; more than 2 h in data set [5]; more than 2 h in data set [6]; more than 2 h in data set [7]. In addition, at androgen receptor (AR) [4], the IC50 is 500 to 2000 nM.
Regarding `COc1c(Cl)cc(C(C)(C)c2ccc(-c3ccc4nc(NS(C)(=O)=O)cnc4c3)cc2)cc1C#N` [Compound A269], the half-life at 1 μM in data set [2] is more than 2 h; in data set [3], more than 2 h; in data set [5] it was more than 2 h; in data set [6], more than 2 h; in data set [7] it was 1.32 h. Further, on androgen receptor (AR) [4], the half-maximal inhibitory concentration (IC50) is more than 2000 nM.
`CS(=O)(=O)Nc1cnc2cc(-c3ccc4c(c3)CCC4c3cc(Cl)c(OCCCl)c(C#N)c3)ccc2n1` (stereo not shown) [Compound A270]: the half-life at 1 μM in data set [2], in data set [3], in data set [5], in data set [6] and in data set [7] was more than 2 h each time. Besides, the concentration for half-maximal inhibition (IC50) at androgen receptor (AR) [4] lay in the range of 500 to 2000 nM.
With `CC(C)(c1ccc(-c2ccc3nc(NS(C)(=O)=O)sc3c2)cc1)c1cc(Cl)c(OCCCl)c(C#N)c1` [Compound A274], the half-life at 1 μM in data set [2], in data set [3], in data set [5], in data set [6] and in data set [7] was more than 2 h throughout. The IC50 at androgen receptor (AR) [4] was less than 500 nM.

Usually IC50 stands for the concentration needed to halve the response being measured.
